Patent US20260365628A1, “SUBSTITUTED 3,4-DIHYDROQUINOLINONE INHIBITORS OF TSHR” (Septerna, Inc., priority 2022, published 2026)

target: T1, hTSHR (Homo sapiens, UniProt P16473); experiment: hTSHR TR-FRET cAMP Assay (inhibition of M22-stimulated cAMP production); format: cell-based; settings: Expi293F Inducible cells stably expressing hTSHR; cAMP HTRF; stimulated with EC80 of anti-TSHR antibody M22; 15 min compound preincubation, 30 min at 37° C.; read-out: Activity (IC50 bins)
T1 construct: expressed in transfected cells
Procedure, shortened: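 Readout was a cAMP HTRF ratio of 655/620 nm after lysis, scaled between the EC80 M22 signal (0% inhibition) and no-agonist vehicle (100%). Frozen induced Expi293F-hTSHR cells saw test compounds (0.5% DMSO) for 15 min at 37 °C before 30 min of M22 stimulation at EC80.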

T1 sequence (P16473 21-764): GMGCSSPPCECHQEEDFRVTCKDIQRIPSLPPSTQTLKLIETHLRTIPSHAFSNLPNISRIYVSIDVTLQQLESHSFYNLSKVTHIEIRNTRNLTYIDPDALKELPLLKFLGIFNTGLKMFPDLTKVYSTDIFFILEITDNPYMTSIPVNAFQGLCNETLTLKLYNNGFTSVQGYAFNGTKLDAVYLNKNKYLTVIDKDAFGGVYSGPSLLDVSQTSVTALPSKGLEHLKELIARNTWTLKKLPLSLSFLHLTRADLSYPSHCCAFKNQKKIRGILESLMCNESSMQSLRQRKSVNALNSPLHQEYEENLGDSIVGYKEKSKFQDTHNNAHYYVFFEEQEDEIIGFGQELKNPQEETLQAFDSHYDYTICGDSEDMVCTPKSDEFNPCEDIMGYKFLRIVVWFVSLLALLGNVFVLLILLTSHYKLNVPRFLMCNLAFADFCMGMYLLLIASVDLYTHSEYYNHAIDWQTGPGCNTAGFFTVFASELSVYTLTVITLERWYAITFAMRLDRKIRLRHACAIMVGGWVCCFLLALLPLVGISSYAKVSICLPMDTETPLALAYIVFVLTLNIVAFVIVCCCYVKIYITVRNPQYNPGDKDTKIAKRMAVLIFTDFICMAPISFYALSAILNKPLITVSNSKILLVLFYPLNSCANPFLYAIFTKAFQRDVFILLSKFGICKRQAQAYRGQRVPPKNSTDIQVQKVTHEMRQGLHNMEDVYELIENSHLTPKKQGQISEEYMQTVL

Row | SMILES | IC50
1 | CC(C)(CC(F)(F)F)NC(=O)Nc1ccc2c(c1)ncc(=O)n2Cc1cccc(OC(F)(F)F)c1 [Example 243, 1-(2-oxo-1-(3-(trifluoromethoxy)enzyl)-1,2-dihydroquinoxalin-6-yl)-3-(4,4,4-trifluoro-2-methylbutan-2-yl)urea] | 100 to 1000 nM
2 | CC(C)(CNC(=O)Nc1ccc2c(c1)ncc(=O)n2Cc1cccc(OC(F)(F)F)c1)C(F)(F)F [Example 244, 1-(2-oxo-1-(3-(trifluoromethoxy)benzyl)-1,2-dihydroquinoxalin-6-yl)-3-(3,3,3-trifluoro-2,2-dimethylpropyl) urea] | 100 to 1000 nM
3 | CC(C)(CC#N)NC(=O)Nc1ccc2c(c1)ncc(=O)n2Cc1cccc(OC(F)(F)F)c1 [Example 245, 1-(1-cyano-2-methylpropan-2-yl)-3-(2-oxo-1-(3-(trifluoromethoxy)enzyl)-1,2-dihydroquinoxalin-6-yl)urea] | > 1000 nM
4 | CC(c1cccc(C2CCC2)c1)n1c(=O)cnc2cc(NC(=O)NC(C)(C)C)ccc21 (stereo not drawn) [Example 246, 1-(tert-butyl)-3-(1-(1-(3-cyclobutylphenyl)ethyl)-2-oxo-1,2-dihydroquinoxalin-6-yl)urea] | 100 to 1000 nM
5 | CC(c1cc(F)cc(OC(F)(F)F)c1)n1c(=O)cnc2cc(NC(=O)NC(C)(C)C)ccc21 (stereo not drawn) [Example 247, 1-(tert-butyl)-3-(1-(1-(3-fluoro-5-(tri-fluoromethoxy)phenyl)ethyl)-2-oxo-1,2-dihydro-quinoxalin-6-yl)urea] | 100 to 1000 nM
6 | CC(c1cccc(CCC2COC2)c1)n1c(=O)cnc2cc(NC(=O)NC(C)(C)C)ccc21 (stereo not drawn) [Example 248, 1-(tert-butyl)-3-(1-(1-(3-(2-(oxetan-3-yl)ethyl)phenyl)ethyl)-2-oxo-1,2-dihydro-quinoxalin-6-yl)urea] | > 1000 nM
7 | CC(c1ccc2cnn(CCC(F)(F)F)c2c1)n1c(=O)cnc2cc(NC(=O)NC(C)(C)C)ccc21 (stereo not drawn) [Example 249, 1-(tert-butyl)-3-(2-oxo-1-(1-(1-(3,3,3-trifluoropropyl)-1H-indazol-6-yl)ethyl)-1,2-dihydro-quinoxalin-6-yl)urea] | > 1000 nM
8 | CC(c1cccc(CCOCc2ccncc2)c1)n1c(=O)cnc2cc(NC(=O)NC(C)(C)C)ccc21 (stereo not drawn) [Example 250, 1-(tert-butyl)-3-(2-oxo-1-(1-(3-(2-(pyridin-4-ylmethoxy)ethyl)phenyl)ethyl)-1,2-dihydro-quinoxalin-6-yl)urea] | > 1000 nM
9 | CC(c1cccc2c1cnn2CCC(F)(F)F)n1c(=O)cnc2cc(NC(=O)NC(C)(C)C)ccc21 (stereo not drawn) [Example 251, 1-(tert-butyl)-3-(2-oxo-1-(1-(1-(3,3,3-trifluoropropyl)-1H-indazol-4-yl)ethyl)-1,2-dihydro-quinoxalin-6-yl)urea] | > 1000 nM
10 | CC(c1cccc2ncccc12)n1c(=O)cnc2cc(NC(=O)NC(C)(C)C)ccc21 (stereo not drawn) [Example 252, 1-(tert-butyl)-3-(2-oxo-1-(1-(quinolin-5-yl)ethyl)-1,2-dihydro-quinoxalin-6-yl)urea] | > 1000 nM
11 | CC(c1cc(C(F)(F)F)ccn1)n1c(=O)cnc2cc(NC(=O)NC(C)(C)C)ccc21 (stereo not drawn) [Example 253, 1-(tert-butyl)-3-(2-oxo-1-(1-(4-(trifluoromethyl)pyridin-2-yl)ethyl)-1,2-dihydro-quinoxalin-6-yl)urea] | > 1000 nM
12 | CC(c1nc(Cl)ccc1Cl)n1c(=O)cnc2cc(NC(=O)NC(C)(C)C)ccc21 (stereo not drawn) [Example 254, 1-(tert-butyl)-3-(1-(1-(3,6-dichloropyridin-2-yl)ethyl)-2-oxo-1,2-dihydro-quinoxalin-6-yl)urea] | 100 to 1000 nM
13 | C[C@H]1Oc2cc(NC(=O)NC3(C)CCC3)ccc2N([C@@H](C)c2ccccc2)C1=O [Example 255, 1-((R)-2-methyl-3-oxo-4-((S)-1-phenylethyl)-3,4-dihydro-2H-benzo[b][1,4]oxazin-7-yl)-3-(1-methylcyclobutyl)urea] | < 100 nM
14 | C[C@H]1Oc2cc(NC(=O)NC3(C)CCCC3)ccc2N([C@@H](C)c2ccccc2)C1=O [Example 256, 1-((R)-2-methyl-3-oxo-4-((S)-1-phenyl-ethyl)-3,4-dihydro-2H-benzo[b][1,4]oxazin-7-yl)-3-(1-methylcyclopentyl)-urea] | < 100 nM
15 | C[C@H]1Oc2cc(NC(=O)NC3(C(F)(F)F)CCCC3)ccc2N([C@@H](C)c2ccccc2)C1=O [Example 257, 1-((R)-2-methyl-3-oxo-4-((S)-1-phen-ylethyl)-3,4-dihydro-2H-benzo[b][1,4]oxazin-7-yl)-3-(1-(trifluoromethyl)-cyclopentyl)urea] | < 100 nM
16 | C[C@H]1Oc2cc(NC(=O)NC3CCC(F)(F)CC3)ccc2N([C@@H](C)c2ccccc2)C1=O [Example 258, 1-(4,4-difluoro-cyclohexyl)-3-((R)-2-methyl-3-oxo-4-((S)-1-phenyl-ethyl)-3,4-dihydro-2H-benzo[b][1,4]oxazin-7-yl)urea] | 100 to 1000 nM

Other lines, results leading:

Row | IC50 | SMILES
17 | < 100 nM | C[C@H]1Oc2cc(NC(=O)NC3(C(F)(F)F)CCC3)ccc2N([C@@H](C)c2ccccc2)C1=O [Example 259, 1-((R)-2-methyl-3-oxo-4-((S)-1-phenylethyl)-3,4-dihydro-2H-benzo [b][1,4]oxazin-7-yl)-3-(1-(trifluoro-methyl)cyclo-butyl)urea]
18 | 100 to 1000 nM | C[C@H]1Oc2cc(NC(=O)NC3(C)CC(F)(F)C3)ccc2N([C@@H](C)c2ccccc2)C1=O [Example 260, 1-(3,3-difluoro-1-methylcyclobutyl)-3-((R)-2-methyl-3-oxo-4-((S)-1-phen-ylethyl)-3,4-dihydro-2H-benzo[b][1,4]oxazin-7-yl)urea]
19 | 100 to 1000 nM | COCC1(NC(=O)Nc2ccc3c(c2)O[C@H](C)C(=O)N3[C@@H](C)c2ccccc2)CCC1 [Example 261, 1-(1-(methoxy-methyl)cyclobutyl)-3-((R)-2-methyl-3-oxo-4-((S)-1-phen-ylethyl)-3,4-dihydro-2H-benzo [b][1,4]oxazin-7-yl)urea]
20 | > 1000 nM | C[C@H]1Oc2cc(NC(=O)NC3(C)COC3)ccc2N([C@@H](C)c2ccccc2)C1=O [Example 262, 1-((R)-2-methyl-3-oxo-4-((S)-1-phenylethyl)-3,4-dihydro-2H-benzo [b][1,4]oxazin-7-yl)-3-(3-methyl-oxetan-3-yl)urea]
21 | 100 to 1000 nM | C[C@H]1Oc2cc(NC(=O)NC3(C(F)(F)F)COC3)ccc2N([C@@H](C)c2ccccc2)C1=O [Example 263, 1-((R)-2-methyl-3-oxo-4-((S)-1-phen-ylethyl)-3,4-dihydro-2H-benzo[b][1,4]oxazin-7-yl)-3-(3-(trifluoromethyl)-oxetan-3-yl)urea]
22 | 100 to 1000 nM | C[C@H]1Oc2cc(NC(=O)NC3(C(F)(F)F)CC(F)(F)C3)ccc2N([C@@H](C)c2ccccc2)C1=O [Example 264, 1-(3,3-difluoro-1-(trifluoromethyl)-cyclobutyl)-3-((R)-2-methyl-3-oxo-4-((S)-1-phenylethyl)-3,4-dihydro-2H-benzo[b][1,4]oxazin-7-yl)urea]
23 | 100 to 1000 nM | C[C@H]1Oc2cc(NC(=O)NC3(C)CCOCC3)ccc2N([C@@H](C)c2ccccc2)C1=O [Example 265, 1-((R)-2-methyl-3-oxo-4-((S)-1-phen-ylethyl)-3,4-dihydro-2H-benzo[b][1,4]oxazin-7-yl)-3-(4-methyltetrahydro-2H-pyran-4-yl)urea]
24 | > 1000 nM | Cc1ccc(C#N)c(CN2C(=O)CCc3cc(NC(=O)NC(C)(C)C)ccc32)c1 [Example 266, 3-tert-butyl-1-{1-[(2-cyano-5-methylphenyl)methyl]-2-oxo-3,4-dihydroquinolin-6-yl}urea]
25 | 100 to 1000 nM | CC(C)(C)NC(=O)Nc1ccc2c(c1Cl)CCC(=O)N2Cc1ccccc1 [Example 267, 1-(1-benzyl-5-chloro-2-oxo-1,2,3,4-tetrahydroquinolin-6-yl)-3-(tert-butyl)urea]
26 | 100 to 1000 nM | C[C@@H]1Oc2cc(NC(=O)NC(C)(C)C)ccc2N([C@@H](C)c2ccccc2)C1=O [Example 268, 1-(tert-butyl)-3-((S)-2-methyl-3-oxo-4-((S)-1-phenylethyl)-3,4-dihydro-2H-benzo[b][1,4]oxazin-7-yl)urea]
27 | < 100 nM | C[C@H]1Oc2cc(NC(=O)NC(C)(C)C)ccc2N([C@@H](C)c2ccccc2)C1=O [Example 269, 1-(tert-butyl)-3-((R)-2-methyl-3-oxo-4-((S)-1-phenylethyl)-3,4-dihydro-2H-benzo[b][1,4]oxazin-7-yl)urea]
28 | > 1000 nM | CC(C)(C)NC(=O)Nc1cc2c(cc1C#N)N(Cc1ccccc1)C(=O)CC2 [Example 270, 1-(1-benzyl-7-cyano-2-oxo-3,4-dihydroquinolin-6-yl)-3-tert-butylurea]
29 | > 1000 nM | CC(c1cccc(C(F)(F)F)c1)N1C(=O)N(C)Cc2cc(NC(=O)NC(C)(C)C)ccc21 (stereo not drawn) [Example 271, 1-(tert-butyl)-3-(3-methyl-2-oxo-1-(1-(3-(trifluoromethyl)phenyl)ethyl)-1,2,3,4-tetrahydroquinazolin-6-yl)urea]
30 | > 1000 nM | Cc1nc2cc(NC(=O)NC(C)(C)C)ccc2n(Cc2ccccc2)c1=O [Example 272, 1-(1-benzyl-3-methyl-2-oxo-1,2-dihydroquinoxalin-6-yl)-3-(tert-butyl)urea]
31 | 100 to 1000 nM | Cc1nc2cc(NC(=O)NC(C)(C)C)ccc2n(Cc2cccc(Cl)c2)c1=O [Example 273, 3-tert-butyl-1-{1-[(3-chlorophenyl)methyl]-3-methyl-2-oxoquinoxalin-6-yl}urea]
32 | 100 to 1000 nM | CC(C)(C)NC(=O)Nc1ccc2c(n1)CCC(=O)N2Cc1cccc(C(F)(F)F)c1 [Example 274, 1-(tert-butyl)-3-(6-oxo-5-(3-(trifluoromethyl)benzyl)-5,6,7,8-tetrahydro-1,5-naphthyridin-2-yl)urea]
33 | > 1000 nM | CC(C)(C)NC(=O)Nc1ccc2c(c1)C[C@H](CC#N)C(=O)N2Cc1ccccc1 [Example 275, (R)-1-(1-benzyl-3-(cyanomethyl)-2-oxo-1,2,3,4-tetrahydroquinolin-6-yl)-3-(tert-butyl)urea]
